Source: US8357697B2, “Substituted 3-isobutyl-9,10-dimethoxy-1,3,4,6,7,11b-hexahydro-2H-pyrido[2,1-A]isoquinolin-2-ol compounds and methods relating thereto” (Neurocrine Biosciences, Inc., priority 2006, dated 2013)
Each block holds one compound with its values, some of them ahead of it.

Legend:
[1] = test system: human hepatocytes; experiment: Stability of compounds in human hepatocytes; type: in vitro ADME; conditions: 1 μM, 0-60 min, FIGS. 1a-1c
Method: Cryopreserved human hepatocytes from 12 individual donors were thawed according to the supplier's instruction and pooled. Cell viability was determined to be more than 85%. TBZ (1 μM) was incubated with individual human hepatocytes (1×10^6 cells/mL) at 37° C. with 95% O2 and 5% CO2 for 0, 5, 15, 30 and 60 min. TBZ in DMSO was added to achieve 1.0 μM (DMSO was less than 0.5% v/v). All concentrations and cell contents were relative to the final incubation volume of 100 μL. The incubation was terminated by mixing 100 μL of ice-cold acetonitrile in 1% formic acid containing dextromethorphan (1.0 μM) as internal standard for LC/MS analysis. Precipitated proteins were removed by centrifugation (1500-2500×g for 30 min at 15° C.).
Briefly, samples were separated with a gradient HPLC method by Acquity HPLC systems consisting of a pump, a column heater (40° C.), and a vacuum degasser/mobile phase tray. Mobile phase A was water in 0.1% formic acid and mobile phase B was acetonitrile in 0.1% formic acid. The gradient elution was as follows: mobile phase B: 0-10% at 0-0.75 min, 40-90% at 1.25-1.5 min, 90-0% at 1.75-2.0 min, and run time was 3 min. The reverse phase column was a BEH C18 column (50×2.1 mm, 1.7 μm). Flow rate was 0.8 mL/min and injection volume was 7.5 μL. The samples were monitored with API-3000 mass spectrometer and ESI ion source in positive mode, TBZ m/z 318.4>220.4, HTBZ m/z 320.3>302.3, and dextromethorphan m/z 272.2>147.2.

[2] = humans, background statement; cited from earlier work
[3] = Pharmacokinetic evaluation in dog, single oral dose; type: in vivo; conditions: oral 10 mg/kg (2-1), FIGS. 3c-3d
Method: In brief, a single oral dose (6.1 mg/kg for 3-1 and 10 mg/kg for 2-1) in 10% PEG in 0.25% methylcellulose in milli Q water was administered to dogs (3 dogs/dose) for a pharmacokinetic evaluation. Serial sampling was used to collect blood samples, which were taken from each treated animal at nine time points ranging from pre-dose to 24 hours post dose ([…]) for the oral administration. Plasma samples were stored at −80° C. or below until analysis.
Plasma samples were thawed on ice, and 50 μL of plasma was transferred to a 96-well plate. Plasma proteins were precipitated by addition of pre-chilled 150 μL acetonitrile (ACN) containing 75 ng/mL internal standard. Additional 50 μL of ACN/water (60:40) was added into each sample. […] The supernatant was collected and injected into a LC-MS/MS system for quantification. […] Quantification was performed by fitting peak area ratios to a weighted (1/x^2) linear calibration curve.
(§1) Descriptive pharmacokinetics were derived and evaluated based on the plasma concentrations of 3-1, 2-1 and 1d.1 from each individual […]. Pharmacokinetic parameters were determined using Non-Compartmental Analysis of the plasma concentration-time profiles of 3-1, 2-1 and 1d.1 in WinNonlin pharmacokinetic modeling software Professional Version 5.0.1 program (Pharsight Corporation, Mountain View, Calif.).

[4] = Stability in rat liver microsomes; type: in vitro ADME; conditions: 1 μM, 0-60 min, FIGS. 2a-2f
[5] = test system: panel of 80 receptors, ion channels and transporters; experiment: Receptor selectivity binding assays (Cerep high-throughput profile); conditions: versus the dopamine receptors tested
Method: (§2) The four HTBZ stereoisomers and compounds of the present invention were tested for receptor specificity by screening against a panel of 80 receptors, ion channels and transporters (High-throughput profile, Cerep, S. A.).

[6] = biological target: T1, Dopamine D4.4 receptor (Homo sapiens, UniProt P21917); experiment: Dopamine D4.4 receptor competition binding ([3H]spiperone); conditions: for inhibition at 10 µM: read-out: D4.4 (h) % inhibition at 10 uM; for inhibition at 1 µM: read-out: D4.4 (h) % inhibition at 1 uM
T1 construct: expressed in transfected cells; host or cells: CHO cells
T1 sequence (P21917 1-419): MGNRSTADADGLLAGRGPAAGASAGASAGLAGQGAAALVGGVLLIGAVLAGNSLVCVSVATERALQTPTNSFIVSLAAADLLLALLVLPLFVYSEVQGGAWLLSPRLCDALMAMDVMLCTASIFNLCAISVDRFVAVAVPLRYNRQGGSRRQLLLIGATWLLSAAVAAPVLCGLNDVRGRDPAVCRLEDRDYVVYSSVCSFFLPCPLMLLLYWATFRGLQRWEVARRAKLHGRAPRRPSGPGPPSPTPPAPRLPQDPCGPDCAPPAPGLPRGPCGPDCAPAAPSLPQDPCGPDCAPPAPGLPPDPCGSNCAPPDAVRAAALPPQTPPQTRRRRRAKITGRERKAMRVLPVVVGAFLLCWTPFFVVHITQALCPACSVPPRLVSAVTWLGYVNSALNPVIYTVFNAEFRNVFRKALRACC
Method: as §2
(b) Dopamine D4.4 receptor:
(§3) Source: Human recombinant (CHO cells)
Ligand: [3H]spiperone, 0.3 nM
Incubation time/temperature: 60 min./22° C.
Non-specific ligand: (+)butaclamol (10 μM)
(§4) Quantitation method: Scintillation counting

[7] = Stability in human liver microsomes; type: in vitro ADME; conditions: 1 μM, 0-60 min, FIGS. 2a-2f
Method: Briefly, pooled human liver microsomes (0.1 or 0.5 mg/mL; n>10; mixed gender) were incubated at 37° C. with the test compound in the presence of an NADPH-generating system containing 50 mM, pH 7.4 potassium phosphate buffer, 3 mM magnesium chloride, 1 mM EDTA, 1 mM NADP, 5 mM G-6-P, and 1 Unit/mL G-6-PD.
Incubations were conducted in six modified 2.0-mL, 96-well, deep-well plates in 1 μM of each compound (0.01% DMSO) with a total volume of 250 μl. Each plate, representing a single time point, contained 96 Titertube® Micro Tubes allowing for duplicates of 48 compounds at each time point (0, 5, 10, 20, 40, and 60 minutes). Reaction was stopped by the addition of an appropriate stop reagent (0.3 mL of acetonitrile containing a proprietary internal standard). Precipitated proteins were removed by centrifugation for 15 min at 3000 rpm, and the supernatant fluid (˜0.1 mL) was analyzed by LC/MS for the % of parent compound remaining.
Samples were separated with a gradient HPLC method by Agilent LC systems consisting of a pump, a column heater (40° C.), and a vacuum degasser/mobile phase tray. Mobile phase A was water in 0.1% formic acid and mobile phase B was acetonitrile in 0.1% formic acid. […] The samples were monitored with API-3000 mass spectrometer and ESI ion source in positive mode, TBZ m/z 318.4>220.4, HTBZ m/z 320.3>302.3, and dextromethorphan m/z 272.2>147.2.

[8] = biological target: T2, VMAT2 (Rattus norvegicus, UniProt Q01827); experiment: VMAT2 competition binding assay ([3H]-dihydrotetrabenazine); conditions: mean±SD, n in brackets; at least two independent experiments; read-out: pKi (n), VMAT2 affinity from competition binding studies (converted)
T2 construct: on rat forebrain homegenate (100 μg membrane protein per well); from tissue; host or cells: rat striatum (Procedure A, vesicles) or Sprague-Dawley rat forebrain homogenate (Procedure B)
Method: Preparation of Rat Striatal Vesicles
Rat striata from three rats are pooled and homogenized in 0.32 M sucrose. The homogenate is then centrifuged at 2,000×g for 10 min at 4° C. and the resulting supernatant is centrifuged at 10,000×g for 30 min at 4° C. The resulting pellet containing the enriched synaptosomal fraction (2 mL) is subjected to osmotic shock by addition of 7 mL of distilled H2O, and subsequently the suspension is homogenized. The osmolarity is restored by the addition of 0.9 mL of 0.25 M HEPES and 0.9 mL of 1.0 M neutral L-(+)-tartaric acid dipotassium salt buffer (pH 7.5), followed by a 20 min centrifugation (20,000×g at 4° C.). […]
Aliquots of the vesicle suspension (0.16 mL, 15 μg of protein/mL) are incubated with competitor compounds (ranging from 1E-6M to 1E-12M) and 2 nM [^3H]-dihydrotetrabenazine (HTBZ; specific activity: 20 Ci/mmol, American Radiolabeled Chemicals, Inc) for 1 h at room temperature in a total volume of 0.5 mL. […] Nonspecific binding is determined using 20 μM tetrabenazine (TBZ). […] Bound radioactivity is determined by scintillation spectrometry.
Following incubation at 25° C. for two hours, bound radioligand was collected by rapid filtration onto GF/B glass fiber filters using a Unifilter-96 Harvester (PerkinElmer). […] Bound radioligand was quantified by scintillation counting using a Topcount NXT (PerkinElmer). […]

[9] = biological target: T3, Dopamine D2S receptor (Homo sapiens, UniProt P14416); experiment: Dopamine D2S receptor competition binding ([3H]spiperone); conditions: for inhibition at 10 µM: read-out: D2S (h) % inhibition at 10 uM
T3 construct: expressed in transfected cells; host or cells: CHO cells
Method: as §2
(a) Dopamine D2S receptor:
Reference: Grandy et al., (1989) Proc. Natl. Acad. Sci. USA 86: 9762-6
as §3
Ligand: [3H]spiperone, 1.0 nM
Incubation time/temperature: 90 min/25° C.
Incubation buffer: 50 mM HEPES, 100 mM NaCl, 1 mM EDTA, 3 mM MgCl2, pH 7.4
Non-specific ligand: clozapine (10 μM)
Specific binding: 600 cpm
as §4

[10] = Stability in dog liver microsomes; type: in vitro ADME; conditions: 1 μM, 0-60 min, FIGS. 2a-2f
[11] = Pharmacokinetic evaluation in rat, single oral dose; type: in vivo
Method: In brief, single oral dose (10 mg/kg) of 2-1 and 3-1 in 10% PEG in 0.25% methylcellulose in milli Q water was administered to rats (3 rats/dose) for a pharmacokinetic evaluation. Serial sampling was used to collect blood samples, which were taken from each treated animal at nine time points ranging from pre-dose to 24 hours post dose (0, 0.25, 0.5, 1, 2, 4, 6, 8 and 24 hours) for the oral administration. Plasma samples were stored at −80° C. or below until analysis.
Plasma samples were thawed on ice, and 50 μL of plasma was transferred to a 96-well plate. Plasma proteins were precipitated by addition of pre-chilled 150 μL acetonitrile (ACN) containing 75 ng/mL internal standard. Additional 50 μL of ACN/water (60:40) was added into each sample. Calibration curve samples were prepared by a serial dilution in ACN/water (60:40). Fifty microliter of each standard sample was transferred to a 96-well plate followed by adding 150 μL acetonitrile (ACN) containing 75 ng/mL internal standard and 50 μL blank rat plasma. The plates were capped, mixed and centrifuged at 3000 rpm for 20 min. The supernatant was collected and injected into a LC-MS/MS system for quantification. […] of QC samples (4, 40, 400, 800 ng/ml) for 3-1,2-1 and 1d.1 were used as quality control for the studies needed and prepared in a same way as the standards. Quantification was performed by fitting peak area ratios to a weighted (1/x^2) linear calibration curve.
as §1

T3 sequence (P14416 1-414 isoform P14416-2): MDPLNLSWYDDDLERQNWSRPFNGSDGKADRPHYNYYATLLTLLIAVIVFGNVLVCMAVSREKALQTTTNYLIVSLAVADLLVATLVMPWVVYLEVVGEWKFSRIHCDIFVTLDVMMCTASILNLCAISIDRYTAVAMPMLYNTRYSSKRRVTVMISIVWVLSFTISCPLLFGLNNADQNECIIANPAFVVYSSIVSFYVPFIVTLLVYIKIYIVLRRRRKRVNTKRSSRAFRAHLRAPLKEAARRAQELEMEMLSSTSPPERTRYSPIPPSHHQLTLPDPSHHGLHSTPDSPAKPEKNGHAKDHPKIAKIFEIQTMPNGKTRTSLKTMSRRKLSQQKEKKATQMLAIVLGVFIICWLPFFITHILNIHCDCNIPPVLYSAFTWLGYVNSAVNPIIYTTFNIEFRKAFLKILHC
T2 sequence (Q01827 whole entry): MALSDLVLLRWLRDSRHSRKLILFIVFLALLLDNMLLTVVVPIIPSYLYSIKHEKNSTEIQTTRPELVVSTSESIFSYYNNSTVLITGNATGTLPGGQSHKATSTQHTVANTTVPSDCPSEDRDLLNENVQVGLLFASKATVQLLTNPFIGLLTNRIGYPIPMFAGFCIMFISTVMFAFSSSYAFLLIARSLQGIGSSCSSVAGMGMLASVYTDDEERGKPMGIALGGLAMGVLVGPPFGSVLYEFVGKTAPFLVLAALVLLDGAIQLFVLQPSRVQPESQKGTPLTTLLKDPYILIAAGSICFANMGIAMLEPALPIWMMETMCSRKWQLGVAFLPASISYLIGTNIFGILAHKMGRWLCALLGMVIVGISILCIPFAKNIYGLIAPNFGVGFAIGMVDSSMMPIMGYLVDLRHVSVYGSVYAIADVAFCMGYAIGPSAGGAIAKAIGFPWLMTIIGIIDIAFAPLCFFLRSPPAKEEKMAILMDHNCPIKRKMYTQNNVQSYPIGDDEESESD

conversion in human hepatocytes to HTBZ (tetrabenazine) or to 1d.1 (compounds 2-1, 3-1) [1]: rapid
Compound: COc1cc2c(cc1OC)C1CC(=O)C(CC(C)C)CN1CC2 (racemic) [Tetrabenazine, 3-Isobutyl-9,10-dimethoxy-1,3,4,6,7,11b-hexahydro-2H-pyrido[2,1-a]isoquinolin-2-one, reference compound]
bioavailability [2]: fairly low and variable

plasma half-life of 1d.1 upon oral administration of compound 2-1 relative to compound 3-1 [3]: 2-3 times
conversion in human hepatocytes to HTBZ (tetrabenazine) or to 1d.1 (compounds 2-1, 3-1) [1]: comparatively slow
conversion to 1d.1 in rat liver microsomes, compared with compound 3-1 [4]: slower
selectivity for VMAT2 (in words) [5]: demonstrated selectivity for VMAT2
inhibition at 10 µM [6]: 13%
conversion to 1d.1 in human liver microsomes, compared with compound 3-1 [7]: slower
Ki [8]: 200 nM
inhibition at 10 µM [9]: 2%
conversion to 1d.1 in dog liver microsomes, compared with compound 3-1 [10]: slower
plasma half-life of 1d.1 upon oral administration of compound 2-1 relative to compound 3-1 ([11]; oral 10 mg/kg, FIGS. 3a-3b): 2-3 times
Compound: COc1cc2c(cc1OC)[C@H]1C[C@@H](OC(=O)[C@@H](N)C(C)C)[C@H](CC(C)C)CN1CC2 [Compound 2-1, (S)-2-Amino-3-methyl-butyric acid (2R,3R,11bR)-3-isobutyl-9,10-dimethoxy-1,3,4,6,7,11b-hexahydro-2H-pyrido[2,1-a]isoquinolin-2-yl ester]

Ki [6]: 67 nM
Ki [9]: 57 nM
binding/inhibition at D2(S) (in words) [9]: high affinity binding
Compound: COc1cc2c(cc1OC)[C@@H]1C[C@@H](O)[C@@H](CC(C)C)CN1CC2 [2R, 3S, 11bS-HTBZ]

inhibition at 1 µM [6]: 9%
Ki [9]: 192 nM
binding/inhibition at D2(S) (in words) [9]: high affinity binding
Compound: COc1cc2c(cc1OC)[C@@H]1C[C@H](O)[C@@H](CC(C)C)CN1CC2 [2S, 3S, 11bS-HTBZ]

Compound: COc1cc2c(cc1OC)[C@H]1C[C@H](O)[C@H](CC(C)C)CN1CC2 [2S, 3R, 11bR-HTBZ, (2S,3R,11bR)-3-isobutyl-9,10-dimethoxy-1,3,4,6,7,11b-hexahydro-2H-pyrido[2,1-a]isoquinolin-2-ol]
inhibition at dopamine D4.4 receptor (in words) [6]: some minor inhibition
inhibition at 10 µM [6]: 30%
binding/inhibition at D2(S) (in words) [9]: some minor inhibition
inhibition at 30 µM ([9]; read-out: D2S (h) % inhibition at 30 uM): 17%

conversion in human hepatocytes to HTBZ (tetrabenazine) or to 1d.1 (compounds 2-1, 3-1) [1]: rapid
selectivity for VMAT2 (in words) [5]: demonstrated selectivity for VMAT2
inhibition at 10 µM [6]: 15%
Ki [8]: 12.6 nM
inhibition at 10 µM [9]: 15%
parent compound in rat plasma after oral administration ([11]; oral 10 mg/kg, limit of quantification 1 ng/mL): No 3-1 was detected
rat plasma concentration time profile of 1d.1 from 3-1 compared with 1d.1 administered orally ([11]; oral, FIG. 3a): indistinguishable
Compound: CCOC(=O)O[C@@H]1C[C@@H]2c3cc(OC)c(OC)cc3CCN2C[C@H]1CC(C)C [Compound 3-1, Carbonic acid ethyl ester (2R,3R,11bR)-3-isobutyl-9,10-dimethoxy-1,3,4,6,7,11b-hexahydro-2H-pyrido[2,1-a]isoquinolin-2-yl ester]

inhibition at 1 µM [6]: 0%
inhibition at 10 µM [9]: -6%
Compound: COc1cc2c(cc1OC)[C@H]1C[C@@H](O)[C@H](CC(C)C)CN1CC2 [2R, 3R, 11bR-HTBZ, (2R,3R,11bR)-3-isobutyl-9,10-dimethoxy-1,3,4,6,7,11b-hexahydro-2H-pyrido[2,1-a]isoquinolin-2-ol]
